Among the test systems are SNB-78 CNS; LOX IMVI melanoma; LXFL 529 NSCLC; 786-0 renal; U251 CNS; SK-OV-3 ovarian; CCRF-CEM leukemia; MOLT-4 leukemia; DMS 273 small cell lung; PC-3 prostate; DU-145 prostate.
Assay in all cases: DTP human tumour cell line panel, 48 h

TGI and GI50 data for nine compounds are collected here from PubChem BioAssay (NCI).

As usually defined, the TGI is the concentration at which net growth stops. Lower therefore signals greater sensitivity of the cells. One may read the GI50 as the concentration at which growth is held to half of that of the control.

Molecules are shown by their SMILES.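 Step 1: Grow cells in 96-well plates. Step 2: Expose to compound for 48 hours at 5 concentrations. Step 3: Interpolate endpoints linearly; if unreached, use highest concentration. The concentration for 50% growth inhibition is given as GI50. The concentration for full growth arrest is given as TGI.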

Take `CNC(=O)OCc1c2ccncc2c(C)c2c1[nH]c1ccc(OC)cc12`: the TGI with SNB-78 CNS is 0.681 µM; in the test on LOX IMVI melanoma it was over 100 µM; with LXFL 529 NSCLC, 0.37 µM; with 786-0 renal it was 0.494 µM; with U251 CNS, 0.893 µM; in the test with SK-OV-3 ovarian, 0.866 µM. Also, the TGI is 1.29 µM in the test with CCRF-CEM leukemia, 0.516 µM in the test with MOLT-4 leukemia and over 100 µM with DMS 273 small cell lung.
As for `CCCN(CCC)C(=O)C(=O)c1c(N)[nH]n(-c2ccccc2)c1=O`, the TGI in the test with SNB-78 CNS, with LOX IMVI melanoma, in the test with LXFL 529 NSCLC, in the test with 786-0 renal, in the test on U251 CNS and in the test with SK-OV-3 ovarian was over 100 µM each time. For the same compound, the TGI in the test with CCRF-CEM leukemia, with MOLT-4 leukemia and with DMS 273 small cell lung was over 100 µM each time.
`O=C(N/C(=C\c1ccc(/C=C(\NC(=O)c2ccccc2)c2nc3ccccc3[nH]2)cc1)c1nc2ccccc2[nH]1)c1ccccc1`: the TGI in the test with SNB-78 CNS, in the test on LOX IMVI melanoma, in the test on LXFL 529 NSCLC, in the test on 786-0 renal, in the test on U251 CNS and with SK-OV-3 ovarian was over 100 µM throughout. Also, the TGI in the test on CCRF-CEM leukemia, in the test on MOLT-4 leukemia and with DMS 273 small cell lung was over 100 µM in each case.
With `O=C(O)c1nc(-c2ccc(Cl)c(Cl)c2)nc2ccc(Cl)cc12`, the TGI was 77.6 µM in the test on SNB-78 CNS; over 100 µM in the test on LXFL 529 NSCLC; over 100 µM with 786-0 renal; over 100 µM with U251 CNS; 43.3 µM with SK-OV-3 ovarian; over 10 µM in the test with CCRF-CEM leukemia. Besides, the TGI with MOLT-4 leukemia and in the test on DMS 273 small cell lung was over 100 µM in each case.
As to `C[C@]12CC[C@@H]3c4ccc(O)cc4CC[C@H]3[C@@H]1Cc1cnc(N)nc12`, the GI50 in the test on LOX IMVI melanoma was 17400 nM; in the test on PC-3 prostate, 15.7 µM; with DU-145 prostate, 17.8 µM; in the test with 786-0 renal, 23.3 µM; with U251 CNS it was 17.9 µM; with SK-OV-3 ovarian, 12.8 µM. The GI50 is 15.3 µM in the test on CCRF-CEM leukemia and 13 µM in the test on MOLT-4 leukemia. Also, the TGI in the test with LOX IMVI melanoma is 31.3 µM; in the test with PC-3 prostate, 35.9 µM; in the test on DU-145 prostate, 47.3 µM; in the test on 786-0 renal, 59.3 µM; with U251 CNS it was 41.6 µM; in the test with SK-OV-3 ovarian, 33.5 µM. In addition, the total growth inhibition concentration (TGI) in the test with CCRF-CEM leukemia stood at 40 µM; in the test on MOLT-4 leukemia it was 41.1 µM.
Turning to `C#CCNCCN1C(=O)c2ccc3c4c(ccc(c24)C1=O)C(=O)N(CCNCC#C)C3=O`, the GI50 in the test with LOX IMVI melanoma was 1760 nM; in the test with PC-3 prostate, 7.09 µM; with DU-145 prostate, 5.35 µM; in the test on 786-0 renal, 6.1 µM; in the test with U251 CNS, 3.3 µM; in the test on SK-OV-3 ovarian, 6.3 µM. Besides, the results for the GI50 with CCRF-CEM leukemia and in the test with MOLT-4 leukemia were 5.19 µM and 3.54 µM, respectively. Besides, the TGI with LOX IMVI melanoma worked out at 8.08 µM; in the test with PC-3 prostate, 21.2 µM; in the test on DU-145 prostate, 11.8 µM; in the test with 786-0 renal it was 26.5 µM; with U251 CNS, 10.9 µM; with SK-OV-3 ovarian, 22.6 µM. The figures for the total growth inhibition concentration (TGI) in the test with CCRF-CEM leukemia and in the test on MOLT-4 leukemia were 25 µM and 16.7 µM, respectively.
Turning to `N#CSCc1ccc(Cl)c(CSC#N)c1`, the 50% growth inhibitory concentration (GI50) in the test on LOX IMVI melanoma is 151 nM; in the test with PC-3 prostate, 1.35 µM; with DU-145 prostate, 0.121 µM; in the test on 786-0 renal, 0.301 µM; in the test on U251 CNS, 9.12 µM; in the test on SK-OV-3 ovarian, 20 µM. The GI50 is 0.103 µM in the test with CCRF-CEM leukemia and 0.109 µM in the test on MOLT-4 leukemia. Also, the TGI in the test on LOX IMVI melanoma is 13.6 µM; in the test with PC-3 prostate it was 27.1 µM; in the test with DU-145 prostate it was 12.7 µM; with 786-0 renal, 17.4 µM; in the test on U251 CNS, 28.4 µM; in the test with SK-OV-3 ovarian it was over 100 µM. Besides, the TGI was determined as 23.6 µM in the test with CCRF-CEM leukemia and 53.5 µM with MOLT-4 leukemia.
Regarding `CN1CCc2[nH]nc(-c3n[nH]c4c3CN(C)CC4)c2C1`, the TGI in the test with LOX IMVI melanoma, with PC-3 prostate, with DU-145 prostate, in the test with 786-0 renal, with U251 CNS and in the test on SK-OV-3 ovarian was over 100 µM in each case. Besides, the total growth inhibition concentration (TGI) with CCRF-CEM leukemia and in the test on MOLT-4 leukemia was over 100 µM each time.
With `COC(=O)C1=C(C)NC(C)=C(C(=O)OCC(C)C)C1c1ccccc1[N+](=O)[O-]` (configuration not stated), the GI50 was 3070 nM in the test on LOX IMVI melanoma; 3.54 µM in the test on PC-3 prostate; 5.48 µM in the test with DU-145 prostate; 3.55 µM in the test on 786-0 renal; 4.27 µM in the test with U251 CNS; 4.65 µM in the test with SK-OV-3 ovarian. For the same compound, the GI50 is 2.45 µM with CCRF-CEM leukemia and 3.31 µM in the test on MOLT-4 leukemia. Further, the TGI came to 16.6 µM in the test with LOX IMVI melanoma; 16.9 µM in the test on PC-3 prostate; 34.7 µM in the test on DU-145 prostate; 12.6 µM in the test with 786-0 renal; 17.6 µM in the test with U251 CNS; 17.4 µM in the test on SK-OV-3 ovarian. For the same compound, the TGI in the test on CCRF-CEM leukemia was determined as 11.3 µM; in the test on MOLT-4 leukemia it was 18.9 µM.
